The target of test [1] is JAK2 (Homo sapiens (Human), UniProt O60674). Briefly: JAK Caliper Enzyme Assay at 1 mM ATP (JAK2). Format: biochemical. The conditions noted are these: Caliper assay at 1 mM ATP.
Test [2] deals with JAK3 (Homo sapiens (Human), UniProt P52333). Briefly: JAK Caliper Enzyme Assay at 1 mM ATP (JAK3). Format: biochemical. The conditions noted are these: Caliper assay at 1 mM ATP.
Test [3] addresses TYK2 (Homo sapiens (Human), UniProt P29597). The test is described as follows: JAK Caliper Enzyme Assay at 1 mM ATP (TYK2). Format: biochemical. The conditions noted are these: Caliper assay at 1 mM ATP.
The subject of test [4] is rhIFNγ stimulated STAT-3 phosphorylation in the A549 human epithelial cell line. The test is described as follows: A549 Cell Assay: Inhibition of pSTAT3. Format: cell-based. The conditions noted are these: A549 cells. As to the method: A549 Cell Assay: Inhibition of pSTAT3
An assay measuring the efficacy of JAK inhibitors on the functional response of recombinant human interferon γ (rhIFNγ) stimulated STAT-3 phosphorylation in the A549 human epithelial cell line.
A549 cells (ATCC #CCL-185), were plated at 30,000 cells/well in 96 well flat bottomed tissue culture plates (BD#353072) in 200 μL of growth medium (DMEM, Pfizer media prep, with 10% Fetal Bovine Serum, Sigma #F4135, 2 mM L-Glutamine, Pfizer media prep, 100 U/mL penicillin, Pfizer media prep, and 200 μg/ml streptomycin, Pfizer media prep), and cultured at 37° C., 5% CO2 incubator for 18 hours. Growth medium was removed by vacuum aspiration (V&P Scientific #vp187 bp-60), and 90 μL of pre-warmed assay medium (DMEM with 0.2% BSA, Miltenyi #130-091-376) was added to each well and incubated for 15 minutes at 37° C. 10 μL of vehicle control or test compound (final concentration range of 0.3 nM to 10 μM with 0.1% DMSO) was added to the cells. Plates were incubated at 37° C. for 1 hour. After compound incubation, 10 μL of 220 ng/mL recombinant human IFNγ (R&D Systems #285-IF, final rhIFNγ concentration of 20 ng/mL) was added to the cells and plates were incubated for 30 minutes at 37° C. Wells containing A549 cells, medium with 0.1% DMSO and no rhIFNγ were used as background controls. After rhIFNγ stimulation, media was aspirated from each well and 35 μL/well of iced-cold MSD lysis buffer containing protease and phosphatase inhibitors from Phospho-STAT3 Tyr705 assay kit (Meso-Scale Discovery #K150DID) was added to each well. Plates were incubated at 4° C. with shaking for 30 minutes. Cell lysates were assayed following the MSD Phospho-STAT3 Tyr705 assay kit protocol to detect pSTAT3.
Data were collected and transformed into percent inhibition and calculated using the following formula: […]

The target in test [5] is JAK1 (Homo sapiens (Human), UniProt P23458). The test is described as follows: JAK Caliper Enzyme Assay at 1 mM ATP (JAK1). The conditions noted are these: Caliper assay at 1 mM ATP. Format: biochemical.

Structures can show the parent of a compound that is named as a salt.

For orientation: IC50 means the concentration that inhibits the measured activity by half. Low readings indicate inhibition by little substance, high ones a need for much substance.

JAK2, sequence (O60674 whole entry, species assumed): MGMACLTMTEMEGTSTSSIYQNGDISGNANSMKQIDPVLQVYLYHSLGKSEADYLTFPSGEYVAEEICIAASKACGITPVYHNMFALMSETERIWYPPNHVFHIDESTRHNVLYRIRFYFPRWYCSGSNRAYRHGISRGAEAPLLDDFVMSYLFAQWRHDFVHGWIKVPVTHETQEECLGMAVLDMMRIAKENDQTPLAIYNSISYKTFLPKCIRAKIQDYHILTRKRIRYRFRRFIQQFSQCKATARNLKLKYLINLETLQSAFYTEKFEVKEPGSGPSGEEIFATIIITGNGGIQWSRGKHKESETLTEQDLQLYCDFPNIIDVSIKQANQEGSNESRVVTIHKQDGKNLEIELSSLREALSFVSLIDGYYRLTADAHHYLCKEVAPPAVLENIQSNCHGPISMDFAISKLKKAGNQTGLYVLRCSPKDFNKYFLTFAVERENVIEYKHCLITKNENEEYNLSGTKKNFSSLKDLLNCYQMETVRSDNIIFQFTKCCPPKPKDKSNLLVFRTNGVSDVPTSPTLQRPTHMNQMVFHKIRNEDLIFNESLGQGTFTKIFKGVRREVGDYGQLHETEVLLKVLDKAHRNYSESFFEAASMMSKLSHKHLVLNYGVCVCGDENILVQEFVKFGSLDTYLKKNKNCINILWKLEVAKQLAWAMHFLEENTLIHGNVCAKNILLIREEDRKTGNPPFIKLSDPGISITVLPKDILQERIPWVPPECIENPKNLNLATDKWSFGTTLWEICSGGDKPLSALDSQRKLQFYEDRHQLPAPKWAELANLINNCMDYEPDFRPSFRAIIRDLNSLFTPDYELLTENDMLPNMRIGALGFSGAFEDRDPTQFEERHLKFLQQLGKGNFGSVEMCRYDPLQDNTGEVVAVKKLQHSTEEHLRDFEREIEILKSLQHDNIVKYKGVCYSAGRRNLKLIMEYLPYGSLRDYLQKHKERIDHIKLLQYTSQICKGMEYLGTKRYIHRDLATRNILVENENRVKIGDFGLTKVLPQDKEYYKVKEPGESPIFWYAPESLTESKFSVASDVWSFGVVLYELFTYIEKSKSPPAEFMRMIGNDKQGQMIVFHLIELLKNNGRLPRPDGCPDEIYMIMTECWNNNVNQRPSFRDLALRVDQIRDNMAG
JAK3, sequence (P52333 whole entry, species assumed): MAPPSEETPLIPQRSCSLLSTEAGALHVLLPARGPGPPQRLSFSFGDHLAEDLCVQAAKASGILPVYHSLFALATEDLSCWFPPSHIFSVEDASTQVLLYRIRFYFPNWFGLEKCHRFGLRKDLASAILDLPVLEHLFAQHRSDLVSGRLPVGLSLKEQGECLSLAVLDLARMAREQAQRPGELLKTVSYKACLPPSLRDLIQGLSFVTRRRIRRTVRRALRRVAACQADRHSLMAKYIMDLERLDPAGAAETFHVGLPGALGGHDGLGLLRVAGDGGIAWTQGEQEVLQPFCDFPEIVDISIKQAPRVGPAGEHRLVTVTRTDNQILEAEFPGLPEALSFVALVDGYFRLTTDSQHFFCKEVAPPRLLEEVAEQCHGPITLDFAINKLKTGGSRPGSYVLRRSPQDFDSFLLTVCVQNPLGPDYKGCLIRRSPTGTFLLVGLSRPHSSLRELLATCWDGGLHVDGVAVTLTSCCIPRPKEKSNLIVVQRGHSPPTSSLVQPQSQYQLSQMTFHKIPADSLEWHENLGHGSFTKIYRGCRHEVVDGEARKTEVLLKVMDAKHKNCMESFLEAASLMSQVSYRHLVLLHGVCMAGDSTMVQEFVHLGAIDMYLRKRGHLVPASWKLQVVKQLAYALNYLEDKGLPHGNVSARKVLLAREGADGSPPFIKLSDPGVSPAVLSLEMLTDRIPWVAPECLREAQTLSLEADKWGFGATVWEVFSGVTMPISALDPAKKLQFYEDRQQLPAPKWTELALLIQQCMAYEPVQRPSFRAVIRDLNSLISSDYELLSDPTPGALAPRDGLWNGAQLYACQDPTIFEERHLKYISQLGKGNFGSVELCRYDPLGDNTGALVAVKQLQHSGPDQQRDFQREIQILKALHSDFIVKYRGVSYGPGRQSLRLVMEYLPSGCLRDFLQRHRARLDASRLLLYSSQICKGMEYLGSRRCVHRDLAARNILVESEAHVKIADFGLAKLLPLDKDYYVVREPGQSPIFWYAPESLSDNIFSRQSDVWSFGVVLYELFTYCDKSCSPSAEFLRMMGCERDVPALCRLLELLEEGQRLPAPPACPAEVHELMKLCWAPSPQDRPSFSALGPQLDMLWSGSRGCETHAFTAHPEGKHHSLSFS
TYK2, sequence (P29597 whole entry, species assumed): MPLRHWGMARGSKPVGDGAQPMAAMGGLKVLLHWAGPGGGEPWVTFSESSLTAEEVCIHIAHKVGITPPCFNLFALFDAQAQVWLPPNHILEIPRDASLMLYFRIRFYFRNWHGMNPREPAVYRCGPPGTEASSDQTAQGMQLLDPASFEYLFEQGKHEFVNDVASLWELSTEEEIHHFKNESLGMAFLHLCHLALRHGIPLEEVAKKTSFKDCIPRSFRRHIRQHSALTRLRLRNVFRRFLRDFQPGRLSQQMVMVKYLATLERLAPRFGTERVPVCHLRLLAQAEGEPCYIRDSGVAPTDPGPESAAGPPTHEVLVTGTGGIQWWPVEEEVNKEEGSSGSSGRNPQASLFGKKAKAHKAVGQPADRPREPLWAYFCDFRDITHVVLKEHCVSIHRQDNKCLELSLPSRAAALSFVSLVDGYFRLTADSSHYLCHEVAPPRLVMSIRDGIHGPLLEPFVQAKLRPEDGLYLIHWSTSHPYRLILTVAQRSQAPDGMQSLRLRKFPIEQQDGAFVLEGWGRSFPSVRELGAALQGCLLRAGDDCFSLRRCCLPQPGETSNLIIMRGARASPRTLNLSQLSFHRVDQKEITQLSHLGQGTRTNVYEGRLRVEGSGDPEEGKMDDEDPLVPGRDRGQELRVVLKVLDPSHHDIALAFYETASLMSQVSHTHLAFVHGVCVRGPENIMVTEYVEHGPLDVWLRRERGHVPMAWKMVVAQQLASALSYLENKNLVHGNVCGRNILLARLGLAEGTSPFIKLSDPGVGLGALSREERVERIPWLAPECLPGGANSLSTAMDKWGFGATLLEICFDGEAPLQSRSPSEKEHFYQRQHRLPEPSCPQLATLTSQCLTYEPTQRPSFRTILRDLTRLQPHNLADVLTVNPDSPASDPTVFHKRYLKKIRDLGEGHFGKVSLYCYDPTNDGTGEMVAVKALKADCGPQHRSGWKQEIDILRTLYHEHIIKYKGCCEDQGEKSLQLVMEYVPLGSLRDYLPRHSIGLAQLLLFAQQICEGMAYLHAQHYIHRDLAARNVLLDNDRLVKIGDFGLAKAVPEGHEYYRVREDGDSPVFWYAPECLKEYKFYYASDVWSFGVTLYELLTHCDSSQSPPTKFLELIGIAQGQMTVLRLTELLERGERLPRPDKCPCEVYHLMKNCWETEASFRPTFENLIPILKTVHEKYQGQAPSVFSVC
JAK1, sequence (P23458 whole entry, species assumed): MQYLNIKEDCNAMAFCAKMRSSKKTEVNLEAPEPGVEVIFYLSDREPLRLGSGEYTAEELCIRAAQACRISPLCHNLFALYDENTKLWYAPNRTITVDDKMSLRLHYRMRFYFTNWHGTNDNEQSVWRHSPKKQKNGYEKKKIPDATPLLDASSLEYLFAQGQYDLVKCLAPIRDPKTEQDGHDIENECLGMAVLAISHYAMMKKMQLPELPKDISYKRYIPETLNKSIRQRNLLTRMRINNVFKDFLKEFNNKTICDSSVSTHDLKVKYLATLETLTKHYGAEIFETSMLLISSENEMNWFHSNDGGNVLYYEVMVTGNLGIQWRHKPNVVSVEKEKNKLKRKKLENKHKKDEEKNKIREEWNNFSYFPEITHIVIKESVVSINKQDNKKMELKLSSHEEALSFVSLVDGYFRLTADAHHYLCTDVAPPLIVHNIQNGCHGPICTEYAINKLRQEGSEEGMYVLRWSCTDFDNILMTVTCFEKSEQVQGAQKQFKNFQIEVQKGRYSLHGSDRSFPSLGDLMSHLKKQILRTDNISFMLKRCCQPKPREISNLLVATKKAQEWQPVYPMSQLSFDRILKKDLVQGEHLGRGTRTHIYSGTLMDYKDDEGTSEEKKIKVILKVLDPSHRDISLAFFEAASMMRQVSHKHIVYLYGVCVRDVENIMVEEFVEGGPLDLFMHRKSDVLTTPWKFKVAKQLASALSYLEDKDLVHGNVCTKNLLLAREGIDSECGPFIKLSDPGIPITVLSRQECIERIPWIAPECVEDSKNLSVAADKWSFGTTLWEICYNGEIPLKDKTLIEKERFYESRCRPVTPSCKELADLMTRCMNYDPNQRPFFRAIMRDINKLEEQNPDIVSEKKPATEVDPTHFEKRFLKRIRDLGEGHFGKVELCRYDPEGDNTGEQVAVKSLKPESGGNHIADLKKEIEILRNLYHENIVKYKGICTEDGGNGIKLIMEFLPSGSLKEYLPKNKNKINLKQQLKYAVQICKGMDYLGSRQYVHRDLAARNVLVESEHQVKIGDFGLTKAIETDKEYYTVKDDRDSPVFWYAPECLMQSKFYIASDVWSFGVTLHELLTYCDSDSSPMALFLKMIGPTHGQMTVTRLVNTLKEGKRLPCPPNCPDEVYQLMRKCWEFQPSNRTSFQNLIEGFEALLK

Turning to “6-[5-fluoro-4-hydroxy-2-(2,2,2-trifluoroethyl)phenyl]-4-({5-methoxy-2-[methyl(methylsulfonyl)amino]benzyl}amino)-N-methyl-1H-pyrazolo[4,3-c]pyridine-3-carboxamide [Example 50]”, the IC50 stood at 0.0107 µM in test [1], 0.0474 µM in test [2], 0.0105 µM in test [3] and 0.321 µM in test [4].
Consider `CN(c1cc(O)ccc1CNc1nc(-c2cc(F)c(O)cc2CC(F)(F)F)cc2[nH]nc(C(N)=O)c12)S(C)(=O)=O` [Example 41, 6-[5-Fluoro-4-hydroxy-2-(2,2,2-trifluoroethyl)phenyl]-4-({4-hydroxy-2-[methyl(methylsulfonyl)amino]benzyl}amino)-1H-pyrazolo[4,3-c]pyridine-3-carboxamide], for which, in test [4] (Homo sapiens), the IC50 is 1.19 µM.
In test [4], `CNC(=O)c1n[nH]c2cc(-c3cc(F)c(O)cc3CC(F)(F)F)nc(NCc3cc(O)ccc3N(C)S(=O)(=O)c3cccnc3)c12` [Example 54, 6-[5-fluoro-4-hydroxy-2-(2,2,2-trifluoroethyl)phenyl]-4-({5-hydroxy-2-[methyl(pyridin-3-ylsulfonyl)amino]ben-zyl}amino)-N-methyl-1H-pyrazolo[4,3-c]pyridine-3-carboxamide] had an IC50 of 0.135 µM.
Turning to `CNC(=O)c1n[nH]c2cc(-c3cc(F)c(O)cc3CC(F)(F)F)nc(NCc3ccccc3N(C)S(=O)(=O)N(C)C)c12` [Example 57], the IC50 was found to be 0.0211 µM in test [5]; 0.0934 µM in test [1]; 0.409 µM in test [2]; 0.149 µM in test [3]; 0.0604 µM in test [4].
The corresponding values for `CNC(=O)c1n[nH]c2cc(-c3cc(F)c(O)cc3CC(F)(F)F)nc(NCc3ccccc3N(C)S(=O)(=O)c3cn(C)cn3)c12` [Example 59] are 0.0053 µM, 0.0235 µM, 0.112 µM, 0.0226 µM and 0.29 µM.
In the case of `CN(c1ccc(O)cc1CNc1nc(-c2cc(F)c(O)cc2CC(F)(F)F)cc2[nH]nc(C(=O)Nc3ccc(NCCO)nc3)c12)S(C)(=O)=O` [Example 75, 6-[5-Fluoro-4-hydroxy-2-(2,2,2-trifluoroethyl)phenyl]-N-{6-[(2-hydroxyethyl)amino]pyridin-3-yl}-4-({5-hydroxy-2-[methyl(methylsulfonyl)amino]benzyl}amino)-1H-pyrazolo[4,3-c]pyridine-3-carboxamide], the IC50 in test [4] (Homo sapiens) is 1.35 µM.
In turn, `Cc1cnc(N(C)S(C)(=O)=O)c(CNc2nc(-c3cc(F)c(O)cc3CC(F)(F)F)cc3[nH]nc(C(N)=O)c23)c1` [Example 86, 6-(5-fluoro-4-hydroxy-2-(2,2,2-trifluoroethyl)phenyl)-4-(((5-methyl-2-(N-methylmethylsulfonam-ido)pyridin-3-yl)methyl)amino)-1H-pyrazolo[4,3-c]pyridine-3-carboxamide] returned an IC50 in test [4] of 0.425 µM.
As to `CNC(=O)c1n[nH]c2nc(-c3cc(F)c(O)cc3CC(F)(F)F)nc(NCc3ccccc3N(C)S(C)(=O)=O)c12` [Example 94, 6-(5-Fluoro-4-hydroxy-2-(2,2,2-trifluoroethyl)phenyl)-N-methyl-4-((2-(N-methylmethylsulfonamido)benzyl)amino)-1H-pyrazolo[3,4-d]pyrimidine-3-carboxamide], the IC50 was found to be 0.0054 µM in test [5]; 0.0277 µM in test [1]; 0.0712 µM in test [2]; 0.503 µM in test [3]; 0.126 µM in test [4] (Homo sapiens).
As for `CN(c1ccc(O)cc1CNc1nc(-c2cc(F)c(O)cc2CC(F)(F)F)nc2[nH]nc(C(N)=O)c12)S(C)(=O)=O` [Example 97, 6-(5-Fluoro-4-hydroxy-2-(2,2,2-trifluoroethyl)phenyl)-4-((5-hydroxy-2-(N-methylmethylsulfonamido)benzyl)amino)-1H-pyrazolo[3,4-d]pyrimidine-3-carboxamide], the IC50 in test [4] (Homo sapiens) was found to be 2.07 µM.
In the case of `CNC(=O)c1n[nH]c2nc(-c3cc(F)c(O)cc3CC(F)(F)F)nc(NCc3nccnc3N(C)S(C)(=O)=O)c12` [Example 100, 6-(5-Fluoro-4-hydroxy-2-(2,2,2-trifluoroethyl)phenyl)-N-methyl-4-(((3-(N-methylmethyl-sulfonamido)pyrazin-2-yl)methyl)amino)-1H-pyrazolo[3,4-d]pyrimidine-3-carboxamide], the midpoint of inhibition in test [4] (Homo sapiens), the IC50, lay at 6.88 µM.
In turn, `CNC(=O)c1n[nH]c2nc(-c3cc(F)c(O)cc3CC(F)(F)F)nc(NCc3ccccc3N(CCO)S(C)(=O)=O)c12` [Example 102, 6-(5-fluoro-4-hydroxy-2-(2,2,2-trifluoroethyl)phenyl)-4-((2-(N-(2-hydroxyethyl)methylsulfonamido)benzyl)amino)-N-methyl-1H-pyrazolo[3,4-d]pyrimidine-3-carboxamide] showed an IC50 in test [4] (Homo sapiens) of 3.36 µM.
For the compound `CNC(=O)c1n[nH]c2nc(-c3cc(F)c(O)cc3CC(F)(F)F)nc(NCc3cc(F)ccc3N(C)S(C)(=O)=O)c12` [Example 104, 4-((5-fluoro-2-(N-methylmethylsulfon-amido)benzyl)amino)-6-(5-fluoro-4-hydroxy-2-(2,2,2-trifluoroethyl)phenyl)-N-methyl-1H-pyrazolo[3,4-d]pyrimidine-3-carboxamide], the IC50 stood at 0.0104 µM in test [5]; 0.0661 µM in test [1]; 0.113 µM in test [2]; 1.38 µM in test [3]; 0.292 µM in test [4].
With `CCN(c1ccc(O)cc1CNc1nc(-c2cc(F)c(O)cc2CC(F)(F)F)nc2[nH]nc(C(=O)NC)c12)S(=O)(=O)c1ccccc1` [Example 105, 4-((2-(N-Ethylphenylsulfonamido)-5-hydroxybenzyl)amino)-6-(5-fluoro-4-hydroxy-2-(2,2,2-trifluoroethyl)phenyl)-N-methyl-1H-pyrazolo[3,4-d]pyrimidine-3-carboxamide], in test [4] (Homo sapiens), half-maximal inhibition (IC50) was put at 7.02 µM.
Take `CCc1cc(O)c(F)cc1-c1cc2[nH]ncc2c(N(CCc2ccc(NS(C)(=O)=O)cc2)Cc2ccccc2N(C)S(C)(=O)=O)n1` [Example 130, N-[2-({[6-(2-ethyl-5-fluoro-4-hydroxyphenyl)-1H-pyrazolo[4,3-c]pyridin-4-yl](2-{4-[(methylsulfon-yl)amino]phenyl}ethyl)amino}methyl)phenyl]-N-methylmethanesulfonamide hydrochloride]: in test [4], the IC50 turned out to be 0.729 µM.
`CCc1cc(O)c(F)cc1-c1nc(NCc2ccccc2N(C)S(C)(=O)=O)c2cn[nH]c2n1` [Example 155, N-[2-({[6-(2-Ethyl-5-fluoro-4-hydroxyphenyl)-1H-pyrazolo[3,4-d]pyrimidin-4-yl]amino}methyl)phenyl]-N-methylmethanesulfonamide hydrochloride]: the IC50 is 0.0012 µM in test [5]; 0.005 µM in test [1]; 0.0155 µM in test [2]; 0.061 µM in test [3]; 0.0301 µM in test [4] (Homo sapiens).
With `CCc1cc(O)cc(C)c1-c1cc2[nH]ncc2c(NCc2ccccc2N(C)S(C)(=O)=O)n1` [Example 156, N-(2-(((6-(2-Ethyl-4-hydroxy-6-methylphenyl)-1H-pyrazolo[4,3-c]pyridin-4-yl)amino)methyl)phenyl)-N-methylmethanesulfonamide], the IC50 in test [5] amounted to 0.0255 µM; in test [2] it was 0.177 µM; in test [3], 10 µM; in test [4] (Homo sapiens), 0.0724 µM.
Take `CSCCNc1nc(-c2cc(F)c(O)cc2CC(F)(F)F)cc2[nH]nc(-c3nc4c([nH]3)CCN(Cc3ccccc3)C4)c12` [Example 161, 4-[3-(5-Benzyl-4,5,6,7-tetrahydro-1H-imidazo[4,5-c]pyridin-2-yl)-4-{[2-(methylsulfanyl)-ethyl]amino}-1H-pyrazolo[4,3-c]pyridin-6-yl]-2-fluoro-5-(2,2,2-trifluoroethyl)phenol]: in test [4] (Homo sapiens), the IC50 is > 10 µM.
Same read-out and setting: next, `CN(c1ccccc1CNc1nc(-c2cc(F)c(O)cc2CC(F)(F)F)nc2[nH]nc(-c3nnc(C4CCN(C(=O)CN5CCCC5)CC4)[nH]3)c12)S(C)(=O)=O` [Example 168, N-(2-{[(6-[5-Fluoro-4-hydroxy-2-(2,2,2-trifluoroethyl)phenyl]-3-{5-[1-(pyrrolidin-1-ylacetyl)piperidin-4-yl]-4H-1,2,4-triazol-3-yl}-1H-pyrazolo[3,4-d]pyrimidin-4-yl)amino]methyl}phenyl)-N-methylmethanesulfonamide]: 13.3 µM; `CN(c1ccc(O)cc1CNc1nc(-c2cc(F)c(O)cc2CC(F)(F)F)nc2[nH]nc(-c3nc4c([nH]3)CCNC4)c12)S(C)(=O)=O` [Example 169, N-{2-[({6-[5-Fluoro-4-hydroxy-2-(2,2,2-trifluoroethyl)phenyl]-3-(4,5,6,7-tetrahydro-1H-imidazo[4,5-c]pyridin-2-yl)-1H-pyrazolo[3,4-d]pyrimidin-4-yl}amino)methyl]-4-hydroxyphenyl}-N-methylmethanesulfonamide]: > 10 µM.

The values are drawn from patent US9518052B2, “Pyrazolopyridines and pyrazolopyrimidines” (Pfizer Inc., priority 2014, dated 2016).
